Data: US8518942B2, “Caspase inhibitors and uses thereof” (Buck Institute for Research on Aging, priority 2008, dated 2013)

Legend:
Assay type in all cases: biochemical
caspase-5 = target: T1, caspase-5 (Homo sapiens, UniProt P51878); test: Irreversible inhibitor kinetic assay (progress curve), caspase-5, substrate Ac-WEHD-AMC; conditions: casp-5; duplicate, SD included
T1 sequence (P51878 137-327 limits assumed): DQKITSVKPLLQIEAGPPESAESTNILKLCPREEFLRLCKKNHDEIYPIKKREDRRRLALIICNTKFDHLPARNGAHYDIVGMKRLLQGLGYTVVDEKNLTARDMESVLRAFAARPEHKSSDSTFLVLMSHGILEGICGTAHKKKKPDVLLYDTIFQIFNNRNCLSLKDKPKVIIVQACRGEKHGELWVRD
T1 sequence (P51878 347-434 limits assumed): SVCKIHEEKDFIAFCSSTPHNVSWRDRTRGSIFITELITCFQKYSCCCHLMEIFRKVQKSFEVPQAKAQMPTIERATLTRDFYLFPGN
Source text: (§1) Caspases-3, -6, -7, -8, and -9 were provided by Guy Salvesen's laboratory at the Burnham Institute (La Jolla, Calif.). Caspase-1 was purchased from EMD Biosciences (San Diego, Calif.) and Caspase-2 was purchased from Biomol International (Plymouth Meeting, Pa.). Caspase substrates Ac-DEVD-AMC, Ac-VDVAD-AFC, and Ac-LEHD-AFC were purchased from EMD Biosciences (San Diego, Calif.) and Ac-VDVAD-AMC was purchased from Biomol International (Plymouth Meeting, Pa.). The proteolytic cleavage of N-acyl aminocoumarins by caspases was conducted in Dynatech Microfluor fluorescence 96-well microtiter plates, and readings were taken on a Molecular Devices Spectra Max Gemini XS instrument. The excitation wavelength was 370 nm and the emission wavelength was 455 nm for AMCA substrates, the excitation wavelength was 355 nm and the emission wavelength was 450 nm for peptidyl AMC substrates, and the excitation wavelength was 430 nm and the emission wavelength was 535 nm for peptidyl AFC substrates.
(§2) The kinact/Ki for inhibitors were determined under pseudo-first order conditions using the progress curve method (Eckici et al. (2006) J. Med. Chem., 49: 5728-5749; Bieth (1995) Meth. Enzymol., 248: 59-84). Assay wells contained a mixture of inhibitor and AMC or AFC substrate in buffer. Aliquots of caspase were added to each well to initiate the assay. Hydrolysis of the AMC or AFC substrate was monitored fluorometrically for 45 min. To determine the inhibition parameters, time points for which the control ([I]=0) was linear were used. For each inhibitor, a kobs was calculated for at least four different concentrations of inhibitors via a nonlinear regression of the data according to the equation P=(vi/kobs)[1−exp(−kobst) (where product formation=P, […], and the first-order rate constant=kobs). If kobs varied linearly with [I], then the association constant kass was determined by linear regression analysis using kobs=(kass[I])/(1+[S]/Km) where [S] is the concentration of the substrate. […] Inhibition was measured in duplicate and the average of is reported. […]

caspase-9 = target: T2, caspase-9 (Homo sapiens, UniProt P55211); test: Irreversible inhibitor kinetic assay (progress curve), caspase-9, substrate Ac-LEHD-AFC; conditions: casp-9; duplicate, SD included
T2 construct: gift: Guy Salvesen's laboratory, Burnham Institute (La Jolla, Calif.)
T2 sequence (P55211 1-315 limits assumed): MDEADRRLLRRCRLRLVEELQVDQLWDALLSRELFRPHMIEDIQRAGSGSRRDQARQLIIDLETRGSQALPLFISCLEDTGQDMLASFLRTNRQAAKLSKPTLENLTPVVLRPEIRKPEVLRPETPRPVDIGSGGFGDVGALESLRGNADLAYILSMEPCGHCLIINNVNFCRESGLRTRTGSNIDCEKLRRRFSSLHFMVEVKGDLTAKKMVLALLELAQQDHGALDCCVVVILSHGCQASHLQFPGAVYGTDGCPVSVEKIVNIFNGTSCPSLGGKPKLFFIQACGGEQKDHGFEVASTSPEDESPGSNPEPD
T2 sequence (P55211 331-416 limits assumed): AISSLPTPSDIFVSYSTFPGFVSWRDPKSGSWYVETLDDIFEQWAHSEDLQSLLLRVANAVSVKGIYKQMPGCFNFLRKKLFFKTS
Source text: as §1, §2

caspase-2 = target: T3, caspase-2 (Homo sapiens, UniProt P42575); test: Blots of full-length huntingtin (23Q & 148Q) treated with caspase-2 plus inhibitor; conditions: for Caspase-2 cleavage of Htt: conclusion; for Inhibition of caspase-2 cleavage of full-length huntingtin (blot): 23Q & 148Q, at the higher concentration of 10 μM
T3 sequence (P42575 170-325 limits assumed): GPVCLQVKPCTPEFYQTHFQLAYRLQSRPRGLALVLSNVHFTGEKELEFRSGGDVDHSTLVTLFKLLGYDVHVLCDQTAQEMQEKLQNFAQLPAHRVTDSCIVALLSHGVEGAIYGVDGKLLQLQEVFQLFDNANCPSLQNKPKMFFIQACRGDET
T3 sequence (P42575 348-452 limits assumed): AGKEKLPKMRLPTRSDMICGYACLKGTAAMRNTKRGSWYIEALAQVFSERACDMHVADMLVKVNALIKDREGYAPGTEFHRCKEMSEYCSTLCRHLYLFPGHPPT

kinact/Ki (caspase-5)	kinact/Ki (caspase-9)	Caspase-2 cleavage of Htt (caspase-2)	Inhibition of caspase-2 cleavage of full-length huntingtin (blot) (caspase-2)	Structure (SMILES)
16,500 ± 850 s^−1/M^−1	7,550 ± 1,650 s^−1/M^−1	do not inhibit		C[C@@](NC(=O)CCCC(=O)O)(c1cn([C@@H](CC(=O)O)C(=O)COc2c(F)c(F)cc(F)c2F)nn1)C1CCCCC1 [MJL-002i]
3,300 ± 200 s^−1/M^−1	28,100 ± 2,500 s^−1/M^−1	do not inhibit	slight inhibition	C[C@@](NC(=O)Cc1ccccc1)(c1cn([C@@H](CC(=O)O)C(=O)COc2c(F)c(F)cc(F)c2F)nn1)C1CCCCC1 [MJL-003i]
2,250 ± 350 s^−1/M^−1	18,250 ± 4,050 s^−1/M^−1	do not inhibit	slight inhibition	C[C@@](NS(=O)(=O)Cc1ccccc1)(c1cn([C@@H](CC(=O)O)C(=O)COc2c(F)c(F)cc(F)c2F)nn1)C1CCCCC1 [MJL-001i]
